For 1 compound, IC50 results are on record in paper PMC3262757 (Chemistry Central Journal, 2011).

One may read the IC50 as the concentration that inhibits the measured activity by half.

The subject of experiment [1] is JNK1. Type of experiment: cell-based.
In experiment [2] the test system is JNK2. The format is cell-based.

Turning to `CCOc1nc(NC(=O)Cc2cc(OC)c(NC(C)=O)cc2OC)cc(N)c1C#N` [compound 2, 2-(4-acetylamino-2,5-dimethoxyphenyl)-N-(4-amino-5-cyano-6-ethoxypyridin-2-yl)acetamide], the IC50 in experiment [1] and in experiment [2] was ~1500 nM in each case.
